Laboratory results published in US12161669B2, “Compositions and methods for cell targeting therapies” (UMC UTRECHT HOLDING B.V., priority 2017, dated 2024).

Key:
RhoA = assay: Intracellular RhoA distribution by confocal microscopy in EBV-LCL 48; assay type: cell-based; details: EBV-LCL 48, with or without ABP
CD277 and F-actin = assay: Colocalization of CD277 and F-actin in HEK 293 cells; assay type: cell-based; details: single agent vs medium
Protocol: To determine colocalization between BTN3 molecules and the actin cytoskeleton, HEK 293 cells were grown onto poly-L-lysin-coated coverslips and pretreated with either calpeptin (2 μg/ml) or C3 transferase (20 μg/ml) prior to treating samples with pamidronate Cells were fixed, permeabilized and BTN3 and F-actin were stained with DyLight 680-conjugated BTN3 antibody (clone BT3.1, Novus Biologicals) and Fluorescein-coupled phalloidin (Sigma), respectively. The correlation coefficient between BTN3 and F-actin signal was determined as a measure of colocalization using Volocity software.

Daudi = assay: IFNγ ELISA of γ9δ2T cell clones co-incubated with Daudi; assay type: cell-based
Protocol: PBMCs were stained with monoclonal antibody (mAb) to Vδ2 (Vδ2-FITC clone B6). The mAb-positive fraction was either sorted in bulk, expanded on REP, and thereafter cloned by limiting dilution (donor A) or single cell-sorted using FACS sort with collection of single cells in 96 well plates (donors B, C). All FACS sorts were performed on ARIAII (BD). Eight to twelve rounds of expansion on REP preceded functional testing. As soon as the cells expanded to sufficient numbers functional testing was performed: 5*10^4 T cells were incubated overnight together with target cells at 1:1 E:T ratio in DMEM supplemented with 10% FCS and 1% pen/strep, without or in the presence of 100 uM Pamidronate Disodium salt (Calbiochem Cat #506600), supernatants were harvested the day after, and IFNγ concentration was measured using ELISA (eBioscience Ready-Set-Go! ELISA kit, Invitrogen Cat #88731688).
In order to assess on a broader range the impact of individual γ9δ2TCR on the functional activity of individual γ92δT cell clones γδ T cell clones were isolated by limiting dilution or FACS sorting. In vitro antitumor activity was determined by IFNγ production against the tumor cell line Daudi. Substantial antitumor functional heterogeneity was observed among the γ9δ2T cell clones (N=57) isolated from 4 healthy donors, with approximately 60% of the clones being reactive to the tumor cell line Daudi (FIG. 13A), when choosing a cut-off of 30 pg/ml for reliable measurement of IFNγ concentration. Bisphopshonates such as pamidronate (PAM) can enhance activity of γ9δ2T cells through induction of CD277J, facilitated by RhoB and sensed by the γ9δ2TCR. In the presence of 100 μM PAM the reactivity of investigated γ9δ2T cell clones was on average 10-fold enhanced (range 0.7-37.3; median 8.1) with >95% of the clones showing reactivity above the threshold when PAM was added (FIG. 13A). In order to assess whether activity profiles where exclusively observed for Daudi cells or also valid for other targets, the cell line HEK293FT, an additional well-characterized γδT cell target, was co-incubated with the isolated γδT cell clones. HEK293FT cell line elicited much lower cytokine secretion in the absence of PAM with only approximately 30% of γ9δ2T cell clones secreting IFNγ above cut-off (FIG. 13B).

Daudi cells = assay: sTCR YG-bead conjugation to Daudi cells; assay type: binding; details: with vs without PAM
From the text: The extracellular domains of the TCR chains were amplified from synthetic DNA encoding the full length TCRs. The domain boundaries were based on ones published before for Vγ9Vδ2 TCR G115. The TCR chains were ligated in to a modified pBullet vector containing a μ-phosphatase signal peptide at the 5′ end and fos zipper at the 3′ end of the construct. The TCRγ chains were ligated in a modified pBullet vector containing a μ-phosphatase signal peptide at the 5′ end and at the 3′ a jun zipper followed by a biotin acceptor peptide and a poly-histidine tag. Synthetic DNA encoding for the bacterial biotin ligase BirA was also ligated in a pBullet vector containing a signal peptide. The expression of soluble γδTCRs was done in Freestyle 293-F cells (ThermoFisher). In short, plasmids containing TCRδ, TCRγ and BirA were mixed into a 45:45:10 ratio, combined with polyethylenimine (PEI) in a 2:3 ratio and incubated for 15′ at room temperature. […]
For tetramer and dextramer staining, 1.0*10^5 cells were incubated with 30 ul tetramer or dextramer solution (100 nM with respect to SA-PE) for 30 minutes at R.T. For beads staining, 7.5*10^4 cells were incubated with 20 μl sTCR-YG-beads (0.33 mg beads/ml) for 30. […] Samples were washed once with 1% formaldehyde and analyzed on a BD FACSCanto II (BD). γδTCR enrichment to synapse and conjugate formation

NCCC(O)(P(=O)(O)O)P(=O)(O)O [pamidronate]
intracellular distribution of RhoA (RhoA): did not change | colocalization between CD277 and F-actin (CD277 and F-actin): markedly reduced | clones showing reactivity above the threshold (Daudi; 100 μM PAM added, cut-off 30 pg/ml IFNγ): > 95% | enhancement of reactivity of γ9δ2T cell clones, average (Daudi; 100 μM PAM vs no PAM): 10 fold | enhancement of reactivity of γ9δ2T cell clones, median (Daudi; 100 μM PAM vs no PAM): 8.1 fold | enhancement of reactivity of γ9δ2T cell clones, range (Daudi; 100 μM PAM vs no PAM): 0.7-37.3 fold | intensity of TCR-YG-bead conjugation to Daudi cells (Daudi cells): did not change
